Source: paper PMC5146859, “Phase 1/2 study of pacritinib, a next generation JAK2/FLT3 inhibitor, in myelofibrosis or other myeloid malignancies” (Journal of Hematology & Oncology, 2016)
Read-outs that look alike come from different tables or passages of the source.

Legend:
[1] = system: patients with advanced myeloid malignancies; assay: Phase 1 dose escalation: dose-limiting toxicities and MTD; type: in vivo
Experimental: Phase 1 was a 3 + 3 dose-escalation study. Three to six patients were enrolled at each dose level, depending upon observed dose-limiting toxicities (DLTs) in the cohort. Each patient participated in only one cohort. Oral pacritinib was administered to the first cohort at 100 mg once daily (QD) for 25 consecutive days in a 28-day cycle in cycle 1, with 3 days of rest for pharmacokinetic (PK) sampling, followed by continuous 28-day dosing for the remaining cycles. Subsequent cohorts received escalating pacritinib dose levels of 150, 200, 300, 400, 500, and 600 mg QD. All patients at each dose level were observed through the end of the first cycle before the next dose level could begin treatment. […]
The primary objective of phase 1 was to establish the MTD of pacritinib in patients with advanced myeloid malignancies, defined as the highest dose level at which no more than one out of six patients in the cohort experienced a DLT during cycle 1 (25 days) of therapy. […] Clinical benefit rate was assessed as an exploratory endpoint, defined as the proportion of patients who experienced a complete response, partial response, clinical improvement, or stable disease (SD) during the study.

[2] = Phase 1 pharmacokinetics (liquid chromatography/tandem mass spectrometry); type: in vivo, human; parameters: C24h, Mean / C24h, Median: unit not given here; conditions: for AUC(0-t) / Cmax / Tmax: human, in vivo
Experimental: In phase 1, full PK sampling was performed on days 1 and 15 of cycle 1 and day 1 of cycle 2. Trough PK samples were drawn prior to dosing on days 8 and 22 of cycle 1 and at 24, 48, and 72 h after dosing on day 25 of cycle 1. A sample was collected before dosing on day 1 of cycles 4, 7, and 10. Pacritinib concentrations were determined using a validated liquid chromatography/tandem mass spectrometry method. An analysis of clinical exposures from the HCl and citrate salts of pacritinib was performed comparing Day 1 PK data from 12 patients who received the HCl salt formulation in the 200 mg cohorts of this study and two other pacritinib studies [NCT00741871 and NCT00745550]) with six patients in the 200 mg cohort of this study who received the citrate salt formulation.

[3] = phase 1, Day 1, 200 mg (HCl and citrate salt cohorts pooled)
[4] = phase 1, Day 15, 200 mg (HCl and citrate salt cohorts pooled)

C1=C/COCc2cc(ccc2OCCN2CCCC2)Nc2nccc(n2)-c2cccc(c2)COC/1 [pacritinib, 11-(2-pyrrolidin-1-yl-ethoxy)-14,19-dioxa-5,7,26-triaza-tetracyclo[19.3.1.1(2,6). 1(8,12)]heptacosa-1(25),2(26),3,5,8,10,12(27),16,21,23-decaene]
Recommended phase 2 dose ([1]; human, in vivo): 400 mg QD
Maximum tolerated dose (MTD) ([1]; phase 1, oral): 500 mg QD
Mean PK profiles, citrate vs HCl salts ([2]; 200 mg, day 1, 6 patients citrate vs 12 patients HCl): similar
AUC(0-t) ([2]; oral, 100 mg, phase 1, Day 1, 100 mg, read-out: AUC0-24h, Mean): 65.9 µg·h/mL
AUC(0-t) ([2]; oral, 100 mg, phase 1, Day 1, 100 mg, read-out: AUC0-24h, Median): 56 µg·h/mL
Cmax ([2]; oral, 100 mg, phase 1, Day 1, 100 mg, read-out: Cmax, Mean): 3700 ng/mL
Cmax ([2]; oral, 100 mg, phase 1, Day 1, 100 mg, read-out: Cmax, Median): 2910 ng/mL
Tmax ([2]; oral, 100 mg, phase 1, Day 1, 100 mg, read-out: Tmax, Median): 5 h
AUC(0-t) ([2]; oral, 100 mg, phase 1, Day 15, 100 mg, read-out: AUC0-24h, Mean): 120 µg·h/mL
AUC(0-t) ([2]; oral, 100 mg, phase 1, Day 15, 100 mg, read-out: AUC0-24h, Median): 121 µg·h/mL
Cmax ([2]; oral, 100 mg, phase 1, Day 15, 100 mg, read-out: Cmax, Mean): 6360 ng/mL
Cmax ([2]; oral, 100 mg, phase 1, Day 15, 100 mg, read-out: Cmax, Median): 6180 ng/mL
Tmax ([2]; oral, 100 mg, phase 1, Day 15, 100 mg, read-out: Tmax, Median): 3 h
AUC(0-t) ([2]; oral, 150 mg, phase 1, Day 1, 150 mg, read-out: AUC0-24h, Mean): 64.7 µg·h/mL
AUC(0-t) ([2]; oral, 150 mg, phase 1, Day 1, 150 mg, read-out: AUC0-24h, Median): 69.2 µg·h/mL
Cmax ([2]; oral, 150 mg, phase 1, Day 1, 150 mg, read-out: Cmax, Mean): 3720 ng/mL
Cmax ([2]; oral, 150 mg, phase 1, Day 1, 150 mg, read-out: Cmax, Median): 3790 ng/mL
AUC(0-t) ([2]; oral, 150 mg, phase 1, Day 15, 150 mg, read-out: AUC0-24h, Mean): 140 µg·h/mL
AUC(0-t) ([2]; oral, 150 mg, phase 1, Day 15, 150 mg, read-out: AUC0-24h, Median): 114 µg·h/mL
Cmax ([2]; oral, 150 mg, phase 1, Day 15, 150 mg, read-out: Cmax, Mean): 6700 ng/mL
Cmax ([2]; oral, 150 mg, phase 1, Day 15, 150 mg, read-out: Cmax, Median): 5410 ng/mL
Tmax ([2]; oral, 150 mg, phase 1, Day 15, 150 mg, read-out: Tmax, Median): 2.5 h
AUC(0-t) ([2]; oral, 300 mg, phase 1, Day 1, 300 mg, read-out: AUC0-24h, Mean): 87.1 µg·h/mL
AUC(0-t) ([2]; oral, 300 mg, phase 1, Day 1, 300 mg, read-out: AUC0-24h, Median): 98.2 µg·h/mL
Cmax ([2]; oral, 300 mg, phase 1, Day 1, 300 mg, read-out: Cmax, Mean): 5240 ng/mL
Cmax ([2]; oral, 300 mg, phase 1, Day 1, 300 mg, read-out: Cmax, Median): 5830 ng/mL
AUC(0-t) ([2]; oral, 300 mg, phase 1, Day 15, 300 mg, read-out: AUC0-24h, Mean): 133 µg·h/mL
AUC(0-t) ([2]; oral, 300 mg, phase 1, Day 15, 300 mg, read-out: AUC0-24h, Median): 134 µg·h/mL
Cmax ([2]; oral, 300 mg, phase 1, Day 15, 300 mg, read-out: Cmax, Mean): 6410 ng/mL
Cmax ([2]; oral, 300 mg, phase 1, Day 15, 300 mg, read-out: Cmax, Median): 6860 ng/mL
AUC(0-t) ([2]; oral, 400 mg, phase 1, Day 1, 400 mg, read-out: AUC0-24h, Mean): 127 µg·h/mL
AUC(0-t) ([2]; oral, 400 mg, phase 1, Day 1, 400 mg, read-out: AUC0-24h, Median): 118 µg·h/mL
Cmax ([2]; oral, 400 mg, phase 1, Day 1, 400 mg, read-out: Cmax, Mean): 6280 ng/mL
Cmax ([2]; oral, 400 mg, phase 1, Day 1, 400 mg, read-out: Cmax, Median): 5640 ng/mL
Tmax ([2]; oral, 400 mg, phase 1, Day 1, 400 mg, read-out: Tmax, Median): 8 h
AUC(0-t) ([2]; oral, 400 mg, phase 1, Day 15, 400 mg, read-out: AUC0-24h, Mean): 203 µg·h/mL
AUC(0-t) ([2]; oral, 400 mg, phase 1, Day 15, 400 mg, read-out: AUC0-24h, Median): 240 µg·h/mL
Cmax ([2]; oral, 400 mg, phase 1, Day 15, 400 mg, read-out: Cmax, Mean): 9770 ng/mL
Cmax ([2]; oral, 400 mg, phase 1, Day 15, 400 mg, read-out: Cmax, Median): 11700 ng/mL
AUC(0-t) ([2]; oral, 500 mg, phase 1, Day 1, 500 mg, read-out: AUC0-24h, Mean): 141 µg·h/mL
AUC(0-t) ([2]; oral, 500 mg, phase 1, Day 1, 500 mg, read-out: AUC0-24h, Median): 118 µg·h/mL
Cmax ([2]; oral, 500 mg, phase 1, Day 1, 500 mg, read-out: Cmax, Mean): 7050 ng/mL
Cmax ([2]; oral, 500 mg, phase 1, Day 1, 500 mg, read-out: Cmax, Median): 6310 ng/mL
AUC(0-t) ([2]; oral, 500 mg, phase 1, Day 15, 500 mg, read-out: AUC0-24h, Mean): 178 µg·h/mL
AUC(0-t) ([2]; oral, 500 mg, phase 1, Day 15, 500 mg, read-out: AUC0-24h, Median): 161 µg·h/mL
Cmax ([2]; oral, 500 mg, phase 1, Day 15, 500 mg, read-out: Cmax, Mean): 8730 ng/mL
Cmax ([2]; oral, 500 mg, phase 1, Day 15, 500 mg, read-out: Cmax, Median): 7990 ng/mL
AUC(0-t) ([2]; oral, 600 mg, phase 1, Day 1, 600 mg, read-out: AUC0-24h, Mean): 136 µg·h/mL
AUC(0-t) ([2]; oral, 600 mg, phase 1, Day 1, 600 mg, read-out: AUC0-24h, Median): 129 µg·h/mL
Cmax ([2]; oral, 600 mg, phase 1, Day 1, 600 mg, read-out: Cmax, Mean): 8330 ng/mL
Cmax ([2]; oral, 600 mg, phase 1, Day 1, 600 mg, read-out: Cmax, Median): 7880 ng/mL
Tmax ([2]; oral, 600 mg, phase 1, Day 1, 600 mg, read-out: Tmax, Median): 4.5 h
AUC(0-t) ([2]; oral, 600 mg, phase 1, Day 15, 600 mg, read-out: AUC0-24h, Mean): 161 µg·h/mL
AUC(0-t) ([2]; oral, 600 mg, phase 1, Day 15, 600 mg, read-out: AUC0-24h, Median): 161 µg·h/mL
Cmax ([2]; oral, 600 mg, phase 1, Day 15, 600 mg, read-out: Cmax, Mean): 9220 ng/mL
Cmax ([2]; oral, 600 mg, phase 1, Day 15, 600 mg, read-out: Cmax, Median): 8560 ng/mL
Tmax ([2]; oral, phase 1, day 1, 100-600 mg, read-out: Median time to maximum concentration (Tmax), range over dose cohorts): 4 to 8 h
Tmax ([2]; oral, phase 1, day 15, 100-600 mg, read-out: Median time to maximum concentration (Tmax), range over dose cohorts): 2.5 to 5 h
AUC(0-t) ([2]; po, 200 mg, phase 1, Day 1, 200 mg (HCl and citrate salt cohorts pooled), read-out: AUC0-24h, Mean): 93.3 µg·h/mL
AUC(0-t) ([2]; po, 200 mg, phase 1, Day 1, 200 mg (HCl and citrate salt cohorts pooled), read-out: AUC0-24h, Median): 87.3 µg·h/mL
Cmax ([2]; po, 200 mg, phase 1, Day 1, 200 mg (HCl and citrate salt cohorts pooled), read-out: Cmax, Mean): 5000 ng/mL
Cmax ([2]; po, 200 mg, phase 1, Day 1, 200 mg (HCl and citrate salt cohorts pooled), read-out: Cmax, Median): 4570 ng/mL
Tmax ([2]; po, 200 mg, phase 1, Day 1, 200 mg (HCl and citrate salt cohorts pooled), read-out: Tmax, Median): 5 h
AUC(0-t) ([2]; po, 200 mg, phase 1, Day 15, 200 mg (HCl and citrate salt cohorts pooled), read-out: AUC0-24h, Mean): 125 µg·h/mL
AUC(0-t) ([2]; po, 200 mg, phase 1, Day 15, 200 mg (HCl and citrate salt cohorts pooled), read-out: AUC0-24h, Median): 130 µg·h/mL
Cmax ([2]; po, 200 mg, phase 1, Day 15, 200 mg (HCl and citrate salt cohorts pooled), read-out: Cmax, Mean): 6700 ng/mL
Cmax ([2]; po, 200 mg, phase 1, Day 15, 200 mg (HCl and citrate salt cohorts pooled), read-out: Cmax, Median): 6450 ng/mL
Tmax ([2]; po, 200 mg, phase 1, Day 15, 200 mg (HCl and citrate salt cohorts pooled), read-out: Tmax, Median): 5 h
C24h, Mean ([2]; phase 1, Day 1, 100 mg): 2440
C24h, Median ([2]; phase 1, Day 1, 100 mg): 2318
C24h, Mean ([2]; phase 1, Day 1, 150 mg): 3113
C24h, Median ([2]; phase 1, Day 1, 150 mg): 2316
C24h, Mean [2, 3]: 3921
C24h, Median [2, 3]: 3026
C24h, Mean ([2]; phase 1, Day 1, 300 mg): 4213
C24h, Median ([2]; phase 1, Day 1, 300 mg): 3528
C24h, Mean ([2]; phase 1, Day 1, 400 mg): 5644
C24h, Median ([2]; phase 1, Day 1, 400 mg): 4725
C24h, Mean ([2]; phase 1, Day 1, 500 mg): 5899
C24h, Median ([2]; phase 1, Day 1, 500 mg): 4417
C24h, Mean ([2]; phase 1, Day 1, 600 mg): 5093
C24h, Median ([2]; phase 1, Day 1, 600 mg): 4136
C24h, Mean ([2]; phase 1, Day 15, 100 mg): 3945
C24h, Median ([2]; phase 1, Day 15, 100 mg): 4322
C24h, Mean ([2]; phase 1, Day 15, 150 mg): 5428
C24h, Median ([2]; phase 1, Day 15, 150 mg): 5026
C24h, Mean [2, 4]: 4852
C24h, Median [2, 4]: 4993
C24h, Mean ([2]; phase 1, Day 15, 300 mg): 4965
C24h, Median ([2]; phase 1, Day 15, 300 mg): 4850
C24h, Mean ([2]; phase 1, Day 15, 400 mg): 8429
C24h, Median ([2]; phase 1, Day 15, 400 mg): 10168
C24h, Mean ([2]; phase 1, Day 15, 500 mg): 6550
C24h, Median ([2]; phase 1, Day 15, 500 mg): 5685
C24h, Mean ([2]; phase 1, Day 15, 600 mg): 6439
C24h, Median ([2]; phase 1, Day 15, 600 mg): 5417
Between-patient coefficient of variation for Cmax and AUC0–24 ([2]; phase 1, day 1): 25 to 63%
Dose proportionality of exposure (Cmax, C24, AUC0–24) ([2]; phase 1, day 1): less than dose-proportional
Between-patient coefficient of variation for Cmax and AUC0–24 ([2]; phase 1, day 15): 20–54%
Dose dependence of exposure (Cmax, C24, AUC0–24) ([2]; phase 1, day 15): plateau above the 400 mg dose level
